Target: T1, TNIK (Homo sapiens, UniProt Q9UKE5)
T1 construct: purchased Promega V4158
Experiment: ADP-Glo Kinase Assay, inhibition activity on TNIK
Assay type: biochemical
Settings: not given
Protocol: The inhibition activities on TNIK, IKKε and TBK1 were measured by a luminometer, TNIK/IKKε/TBK1 Kinase Enzyme System (Promega, Ca# V4158; Invitrogen, PR8031B, Promega, Ca# V3991) and ADP-Glo Kinase Assay using ADP-Glo™ Kinase Analysis Kit (Promega, Ca# V9101) and a kinase reaction buffer [40 mM Tris(pH 7.5), 20 mM MgCl2, 0.1 mg/mL BSA] in accordance with the manufacturer's protocol.

T1 sequence (Q9UKE5 1-367 limits assumed): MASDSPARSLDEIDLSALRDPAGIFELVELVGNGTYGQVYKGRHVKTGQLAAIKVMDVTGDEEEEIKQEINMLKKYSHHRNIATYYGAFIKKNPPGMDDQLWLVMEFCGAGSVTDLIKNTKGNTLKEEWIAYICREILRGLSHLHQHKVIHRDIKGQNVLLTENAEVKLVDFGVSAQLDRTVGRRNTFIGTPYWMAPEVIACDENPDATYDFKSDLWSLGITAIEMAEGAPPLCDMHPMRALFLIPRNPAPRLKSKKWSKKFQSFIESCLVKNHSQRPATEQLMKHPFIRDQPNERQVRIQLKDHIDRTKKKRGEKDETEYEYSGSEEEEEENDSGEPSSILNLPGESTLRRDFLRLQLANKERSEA

Row | TNIK (μM) | SMILES
1 | Insoluble | O=C(Nc1ccc(-c2cccc(O)c2O)c2c1C(=O)NC2)c1ccc(F)cc1 [Example 189, N-(7-(2,3-dihydroxyphenyl)-3-oxoisoindolin-4-yl)-4-fluorobenzamide]
2 | Insoluble | Cc1nc2cccc(-c3ccc(NC(=O)c4ccc(F)cc4)c4c3CNC4=O)c2o1 [Example 194, 4-Fluoro-N-(7-(2-methylbenzo[d]oxazol-7-yl)-3-oxoisoindolin-4-yl)benzamide]

Same assay, conditions: read-out: TNIK

Row | IC50 | SMILES
3 | 1.6 µM | COc1ccccc1-c1ccc(NC(=O)c2ccc(F)cc2)c2c1CNC2=O [Example 141, 4-Fluoro-N-(7-(2-methoxyphenyl)-3-oxoisoindolin-4-yl) benzamide]
4 | 0.95 µM | O=C(Nc1ccc(-c2ccccc2)c2c1C(=O)NC2)c1ccccc1F [Example 142, 2-Fluoro-N-(3-oxo-7-phenylisoindolin-4-yl)benzamide]
5 | 1.1 µM | O=C(Nc1ccc(-c2ccccc2)c2c1C(=O)NC2)c1ccc(Cl)cc1 [Example 143, 4-Chloro-N-(3-oxo-7-phenylisoindolin-4-yl)benzamide]
6 | 0.7 µM | COc1ccccc1-c1ccc(NC(=O)c2ccccc2)c2c1CNC2=O [Example 144, N-(7-(2-methoxyphenyl)-3-oxoisoindolin-4-yl)benzamide]
7 | 1.3 µM | COc1cccc(-c2ccc(NC(=O)c3ccccc3)c3c2CNC3=O)c1 [Example 145, N-(7-(3-methoxyphenyl)-3-oxoisoindolin-4-yl)benzamide]
8 | > 20 µM | O=C(Nc1ccc(-c2ccsc2)c2c1C(=O)NC2)c1ccccc1 [Example 146, N-(3-oxo-7-(thiophen-3-yl)isoindolin-4-yl)benzamide]
9 | > 20 µM | N#Cc1cccc(-c2ccc(NC(=O)c3ccccc3)c3c2CNC3=O)c1 [Example 147, N-(7-(3-cyanophenyl)-3-oxoisoindolin-4-yl)benzamide]
10 | 7.4 µM | CN(C)c1cccc(-c2ccc(NC(=O)c3ccccc3)c3c2CNC3=O)c1 [Example 148, N-(7-(3-(dimethylamino)phenyl)-3-oxoisoindolin-4-yl) benzamide]
11 | 3.8 µM | O=C(Nc1ccc(-c2ccccc2F)c2c1C(=O)NC2)c1ccccc1 [Example 149, N-(7-(2-fluorophenyl)-3-oxoisoindolin-4-yl)benzamide]
12 | 2.7 µM | O=C(Nc1ccc(-c2ccoc2)c2c1C(=O)NC2)c1ccccc1 [Example 150, N-(7-(furan-3-yl)-3-oxoisoindolin-4-yl)benzamide]
13 | 1.5 µM | O=C(Nc1ccc(-c2cccc(F)c2)c2c1C(=O)NC2)c1ccccc1 [Example 151, N-(7-(3-fluorophenyl)-3-oxoisoindolin-4-yl)benzamide]
14 | > 20 µM | O=C(Nc1ccc(-c2cccnc2)c2c1C(=O)NC2)c1ccccc1 [Example 152, N-(3-oxo-7-(pyridin-3-yl)isoindolin-4-yl)benzamide]
15 | > 20 µM | O=C(Nc1ccc(-c2cncnc2)c2c1C(=O)NC2)c1ccccc1 [Example 154, N-(3-oxo-7-(pyrimidin-5-yl)isoindolin-4-yl)benzamide]
16 | 2.29 µM | O=C(Nc1ccc(-c2ccccc2)c2c1C(=O)NC2)c1sccc1Cl [Example 155, 3-Chloro-N-(3-oxo-7-phenylisoindolin-4-yl)thiophene-2-carboxamide]
17 | 2.86 µM | O=C(Nc1ccc(-c2ccccc2)c2c1C(=O)NC2)c1ccc(Br)s1 [Example 156, 5-Bromo-N-(3-oxo-7-phenylisoindolin-4-yl)thiophene-2-carboxamide]
18 | 3.4 µM | O=C(Nc1ccc(-c2ccccc2)c2c1C(=O)NC2)c1sccc1Br [Example 157, 3-Bromo-N-(3-oxo-7-phenylisoindolin-4-yl)thiophene-2-carboxamide]
19 | 1.27 µM | O=C(Nc1ccc(-c2ccco2)c2c1C(=O)NC2)c1ccc(F)cc1 [Example 158, 4-Fluoro-N-(7-(furan-2-yl)-3-oxoisoindolin-4-yl)benzamide]
20 | 1.8 µM | CCCCC(=O)Nc1ccc(-c2ccccc2)c2c1C(=O)NC2 [Example 159, N-(3-oxo-7-phenylisoindolin-4-yl)pentanamide]
21 | 1.1 µM | CC(=O)Nc1ccc(-c2ccccc2)c2c1C(=O)NC2 [Example 160, N-(3-oxo-7-phenylisoindolin-4-yl)acetamide]
22 | 9.8 µM | CS(=O)(=O)c1ccc(-c2ccc(NC(=O)c3ccccc3)c3c2CNC3=O)cc1 [Example 167, N-(7-(4-(methylsulfonyl)phenyl)-3-oxoisoindolin-4-yl) benzamide]
23 | > 20 µM | CS(=O)(=O)c1cccc(-c2ccc(NC(=O)c3ccccc3)c3c2CNC3=O)c1 [Example 168, N-(7-(3-(methylsulfonyl)phenyl)-3-oxoisoindolin-4-yl) benzamide]
24 | 4.2 µM | CC(=O)Nc1cccc(-c2ccc(NC(=O)c3ccccc3)c3c2CNC3=O)c1 [Example 169, N-(7-(3-acetamidophenyl)-3-oxoisoindolin-4-yl)benzamide]
25 | 3.52 µM | O=C(Nc1ccc(-c2ccccc2)c2c1C(=O)NC2)c1ccc(Cl)s1 [Example 170, 5-Chloro-N-(3-oxo-7-phenylisoindolin-4-yl)thiophene-2-carboxamide]

Row | IC50 | SMILES
26 | 0.057 µM | COc1cccc(-c2ccc(NC(=O)c3ccccc3)c3c2CNC3=O)c1OC [Example 171, N-(7-(2,3-dimethoxyphenyl)-3-oxoisoindolin-4-yl)benzamide]
27 | > 20 µM | COc1cc(OC)cc(-c2ccc(NC(=O)c3ccccc3)c3c2CNC3=O)c1 [Example 172, N-(7-(3,5-dimethoxyphenyl)-3-oxoisoindolin-4-yl)benzamide]
28 | 0.75 µM | O=C(Nc1ccc(C2CC2)c2c1C(=O)NC2)c1ccccc1 [Example 173, N-(7-cyclopropyl-3-oxoisoindolin-4-yl)benzamide]
29 | > 20 µM | O=C(Nc1ccc(-c2ccccc2Cl)c2c1C(=O)NC2)c1ccccc1 [Example 174, N-(7-(2-chlorophenyl)-3-oxoisoindolin-4-yl)benzamide]
30 | 3 µM | COc1ccc(-c2ccc(NC(=O)c3ccccc3)c3c2CNC3=O)c(OC)c1 [Example 175, N-(7-(2,4-dimethoxyphenyl)-3-oxoisoindolin-4-yl)benzamide]
31 | > 20 µM | COc1ccc(-c2ccc(NC(=O)c3ccccc3)c3c2CNC3=O)cc1OC [Example 176, N-(7-(3,4-dimethoxyphenyl)-3-oxoisoindolin-4-yl)benzamide]
32 | 8.1 µM | CCOc1cccc(-c2ccc(NC(=O)c3ccccc3)c3c2CNC3=O)c1 [Example 177, N-(7-(3-ethoxyphenyl)-3-oxoisoindolin-4-yl)benzamide]
33 | > 20 µM | COc1ccc(OC)c(-c2ccc(NC(=O)c3ccccc3)c3c2CNC3=O)c1 [Example 178, N-(7-(2,5-dimethoxyphenyl)-3-oxoisoindolin-4-yl)benzamide]
34 | > 20 µM | O=C(Nc1ccc(-c2ccc(Cl)cc2)c2c1C(=O)NC2)c1ccccc1 [Example 179, N-(7-(4-chlorophenyl)-3-oxoisoindolin-4-yl)benzamide]
35 | 13.7 µM | O=C(Nc1ccc(-c2cccc(Cl)c2)c2c1C(=O)NC2)c1ccccc1 [Example 180, N-(7-(3-chlorophenyl)-3-oxoisoindolin-4-yl)benzamide]
36 | > 20 µM | CCOc1ccc(-c2ccc(NC(=O)c3ccccc3)c3c2CNC3=O)cc1 [Example 181, N-(7-(4-ethoxyphenyl)-3-oxoisoindolin-4-yl)benzamide]
37 | 2.8 µM | CCOc1ccccc1-c1ccc(NC(=O)c2ccccc2)c2c1CNC2=O [Example 182, N-(7-(2-ethoxyphenyl)-3-oxoisoindolin-4-yl)benzamide]
38 | 1.7 µM | N#Cc1ccccc1-c1ccc(NC(=O)c2ccccc2)c2c1CNC2=O [Example 183, N-(7-(2-cyanophenyl)-3-oxoisoindolin-4-yl)benzamide]
39 | 2.8 µM | CN(C)c1ccccc1-c1ccc(NC(=O)c2ccccc2)c2c1CNC2=O [Example 185, N-(7-(2-(dimethylamino)phenyl)-3-oxoisoindolin-4-yl) benzamide]
40 | > 20 µM | O=C(Nc1ccc(-c2ccc(OC(F)(F)F)cc2)c2c1C(=O)NC2)c1ccccc1 [Example 186, N-(3-oxo-7-(4-(trifluoromethoxy)phenyl)isoindolin-4-yl) benzamide]
41 | 2.2 µM | COc1cccc(OC)c1-c1ccc(NC(=O)c2ccccc2)c2c1CNC2=O [Example 187, N-(7-(2,6-dimethoxyphenyl)-3-oxoisoindolin-4-yl)benzamide]
42 | > 20 µM | CCCc1ccc(-c2ccc(NC(=O)c3ccccc3)c3c2CNC3=O)cc1 [Example 188, N-(3-oxo-7-(4-propylphenyl)isoindolin-4-yl)benzamide]
43 | 0.52 µM | COc1cccc(-c2ccc(NC(=O)c3ccc(F)cc3)c3c2CNC3=O)c1O [Example 190, 4-Fluoro-N-(7-(2-hydroxy-3-methoxyphenyl)-3-oxoisoindolin-4-yl)benzamide]
44 | 13.3 µM | O=C(Nc1ccc(-c2cccs2)c2c1C(=O)NC2)c1ccc(F)cc1 [Example 191, 4-Fluoro-N-(3-oxo-7-(thiophen-2-yl)isoindolin-4-yl)benzamide]
45 | 0.73 µM | Cc1ccc(C(=O)Nc2ccc(-c3ccccc3)c3c2C(=O)NC3)o1 [Example 192, 5-Methyl-N-(3-oxo-7-phenylisoindolin-4-yl)furan-2-carboxamide]
46 | 1.45 µM | O=C(Nc1ccc(-c2cccc3ncoc23)c2c1C(=O)NC2)c1ccc(F)cc1 [Example 193, N-(7-(benzo[d]oxazol-7-yl)-3-oxoisoindolin-4-yl)-4-fluorobenzamide]
47 | > 20 µM | O=C(Nc1ccc(-c2ccc(CN3CCCC3)s2)c2c1C(=O)NC2)c1ccccc1 [Example 195, N-(3-oxo-7-(5-(pyrrolidin-1-ylmethyl)thiophen-2-yl)isoindolin-4-yl)benzamide]

Row | SMILES | IC50
48 | CCCCOc1ccc(-c2ccc(NC(=O)c3ccccc3)c3c2CNC3=O)cc1 [Example 184, N-(7-(4-butoxyphenyl)-3-oxoisoindolin-4-yl)benzamide] | > 20 µM

Reference: US9856216B2, “Compounds as TNIK, IKKε and TBK1 inhibitors and pharmaceutical composition comprising same” (GREEN CROSS CORPORATION, priority 2015, dated 2018)
